The source of these data is patent US9845457B2, “Maintenance of genomic stability in cultured stem cells” (Cedars-Sinai Medical Center, priority 2010, dated 2017).

Series [1] deals with human CDCs. It counts as cell-based. The protocol:
CDCs were expanded in conventional conditions under 20% O2 as described above. Twice-passaged CDCs and ES cells were used in these Examples. Cells were seeded in 96-well plates coated with 20 μg/ml fibronectin. […] After 24 hours of culture, cells were fixed, permeabilized and stained with rabbit polyclonal antibody against γ-H2AX (phosphor 5139, Abeam Inc.). After being washed, the cells were stained with a PE-conjugated secondary antibody and 4,6-diamidino-2-phenylindole (DAPI). Quantification of cells positive for γ-H2AX foci was performed by fluorescence microscopy (×40 magnification). Briefly, at least 5 images were captured from each culture condition from randomly-selected fields using Q-imaging (RETIGA EXi FAST, Canada) with the same exposure time. Cells with γ-H2AX foci in the nuclei were counted by a single observer blinded to treatment regimen, and the percentage of cells with γ-H2AX foci in each culture condition was used for statistical analysis.

The test system of series [2] is human cardiosphere-derived cells. Nature of the series: Intracellular ROS levels (DCF fluorescence) after 24 hours short-term exposure. Format: cell-based. The settings on record: 20% O2, antioxidant A 100-1,000,000-fold dilution, B 0.1-1000 μM, catalase 0.1-1000 units/ml, H2O2 0.1-1000 μM. The protocol: To assay intracellular ROS levels (ROS levels), twice-passaged CDCs were seeded in 6- or 96-well plates coated with 20 μg/ml fibronectin, and continuously cultured under the abovementioned four different conditions. At about 90% confluence, cells were incubated with 10 μM 2′,7′-dichlorodihydrofluorescein diacetate (DCFH-DA) (Invitrogen) for 60 min to allow DCFH-DA to diffuse into cells. The DCF fluorescence intensity in cells cultured in 96-well plates is directly determined using SpectraMax® M5 (Molecular Devices Corp.) with an excitation wavelength of 495 nm and an emission wavelength of 520 nm. Cells cultured in 6-well plates were trypsin-treated and fixed. The DCF fluorescence intensity in cells was analyzed using a FACS Calibur flow cytometer with CellQuest software (BD Biosciences).
Twice-passaged cells were seeded in 6- or 96-well plates coated with 20 μg/ml fibronectin. […] After 24 hours of culture, the DCF fluorescence intensity in cells was measured using the same methods as disclosed above.
CDCs were initially maintained in traditional 5% CO2/20% O2 culture condition and then seeded into 96-well plates and cultured for 24 hours under experimental conditions. […] Dev. for six separate experiments using different twice-passaged CDCs. (a.u.: arbitrary units. * p<0.01, †p<0.05 vs. the baseline levels, represented by “0” on the x-axis). […]

Series [3] relates to ATR, Rad50, Rad51, Chk1, Chk2. Nature of the series: Western blotting of other DNA repair factors after 24 hours short-term exposure. To be noted: 20% O2, high concentrations. It counts as cell-based, human. The protocol:
To examine the protein levels of ATM and other DNA repair-related factors, total protein was purified from twice-passaged CDCs cultured under the abovementioned four different conditions, using well-established laboratory techniques. Briefly, harvested cells were homogenized in a lysis buffer containing a protease inhibitor mixture (Roche Applied Science) on ice. After centrifugation at 15,000 rpm for 10 min, the supernatant was collected for experiments. The equivalent of 30 μg of total protein was loaded onto 5% or 10% SDS-PAGE gels, and then transferred to PVDF membranes. […] Quantitation for blots was done by Quantity One software, and expressions were normalized by β-actin.
Twice-passaged cells were seeded in 6-well plates coated with 20 μg/ml fibronectin. […] The expression of ATM and other DNA repair-related factors was assessed by Western blotting as described above.
On the technique in general: Immunoblotting shows a protein as a band on a membrane.

With catalase, the “percentage of CDCs with γ-H2AX foci (DNA damage), dose response” value in series [1] is “A similar result”. In series [2], the “ROS levels, dose response” value is recorded as “decreased”. Moreover, in series [3], the “expression levels of ATR, Rad50, Rad51, Chk-1, and Chk-2” value was “slightly or obviously decreased”.
Consider `OO` [Antioxidant H2O2, hydrogen peroxide], for which, in series [1], the “percentage of CDCs with γ-H2AX foci (DNA damage), dose response” value is on record as “increased DNA damage dose-dependently”. Besides, in series [2], the “ROS levels, dose response” value is listed as “increased”. The “expression levels of ATR, Rad50, Rad51, Chk-1, and Chk-2” value in series [3] is “increased”.
